Our source for the Ki values is paper PMC8669121 (Epigenetics Insights, 2021).

The target of this assay is T1, HDAC8 (histone deacetylase 8) (Homo sapiens, UniProt Q9BY41).
T1 sequence (Q9BY41 1-377): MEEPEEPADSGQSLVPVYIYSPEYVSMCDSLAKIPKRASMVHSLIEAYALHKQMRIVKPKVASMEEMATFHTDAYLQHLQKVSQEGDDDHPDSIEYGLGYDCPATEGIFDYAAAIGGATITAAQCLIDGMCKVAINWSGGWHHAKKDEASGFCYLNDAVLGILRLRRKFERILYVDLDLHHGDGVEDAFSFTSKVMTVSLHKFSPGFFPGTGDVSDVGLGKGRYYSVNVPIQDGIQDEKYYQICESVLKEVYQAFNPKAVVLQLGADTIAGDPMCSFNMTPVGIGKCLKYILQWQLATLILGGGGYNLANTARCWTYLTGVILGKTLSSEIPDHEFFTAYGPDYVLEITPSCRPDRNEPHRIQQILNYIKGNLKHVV
Kind of assay: Fluor de Lys fluorogenic deacetylase inhibition assay with AcRHKK. The format is biochemical.

As for `CCCCCCCCCC(=O)O` [Decanoic acid], the affinity, expressed as Ki, was 4.48 ± 0.221 mM.
In the case of `CCCCCC(=O)O` [Hexanoic acid] it was 2.35 ± 0.341 mM.
